In patent publication US20230072683A1, “PYRIDO-PYRIMIDIN DERIVATIVES AND PHARMACEUTICAL COMPOSITION, FOR USE IN PREVENTING OR TREATING PI3 KINASE RELATED DISEASES, COMPRISING SAME AS ACTIVE INGREDIENT” (BORYUNG PHARMACEUTICAL CO., LTD, priority 2019, published 2023):

Key:
[1] = biological target: PI3K-δ (PI3K(p1108/p857) (h)) (Homo sapiens, UniProt O00329); experiment: Evaluation of inhibitory activity against PI3K-δ (HTRF kinase assay); type: biochemical; settings: compound concentration 0.01 μM; read-out: EXP_VALUE(% Inhibition) PI3K-δ 0.01 μM
Procedure, shortened: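 HTRF read-out (665/620 nm ratio ×10000) used Eu-labelled anti-GST, GST-tagged GRP1 PH domain and streptavidin-allophycocyanin after EDTA/PIP3 stop.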

[2] = biological target: DNA-PK(h) (Homo sapiens, UniProt P78527); experiment: Evaluation of inhibitory activity against DNA-PK (HTRF kinase assay, GST-cMyc-p53 substrate); type: biochemical; settings: compound concentration 0.01 μM; read-out: EXP_VALUE(% Inhibition) DNA-PK(h) 0.01 μM
Procedure, shortened: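 p53 Ser15 phosphorylation by human DNA-PK was measured by time-resolved FRET ratio (665/620 nm ×10000) using Eu-labelled anti-phospho-Ser15 and d2 anti-GST antibodies. Substrate GST-cMyc-p53 at 50 μM; Mg/ATP-initiated, 30 min at room temperature, EDTA stop.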

Sequence of PI3K-δ (PI3K(p1108/p857) (h)) (O00329 whole entry, the tested form may be a part): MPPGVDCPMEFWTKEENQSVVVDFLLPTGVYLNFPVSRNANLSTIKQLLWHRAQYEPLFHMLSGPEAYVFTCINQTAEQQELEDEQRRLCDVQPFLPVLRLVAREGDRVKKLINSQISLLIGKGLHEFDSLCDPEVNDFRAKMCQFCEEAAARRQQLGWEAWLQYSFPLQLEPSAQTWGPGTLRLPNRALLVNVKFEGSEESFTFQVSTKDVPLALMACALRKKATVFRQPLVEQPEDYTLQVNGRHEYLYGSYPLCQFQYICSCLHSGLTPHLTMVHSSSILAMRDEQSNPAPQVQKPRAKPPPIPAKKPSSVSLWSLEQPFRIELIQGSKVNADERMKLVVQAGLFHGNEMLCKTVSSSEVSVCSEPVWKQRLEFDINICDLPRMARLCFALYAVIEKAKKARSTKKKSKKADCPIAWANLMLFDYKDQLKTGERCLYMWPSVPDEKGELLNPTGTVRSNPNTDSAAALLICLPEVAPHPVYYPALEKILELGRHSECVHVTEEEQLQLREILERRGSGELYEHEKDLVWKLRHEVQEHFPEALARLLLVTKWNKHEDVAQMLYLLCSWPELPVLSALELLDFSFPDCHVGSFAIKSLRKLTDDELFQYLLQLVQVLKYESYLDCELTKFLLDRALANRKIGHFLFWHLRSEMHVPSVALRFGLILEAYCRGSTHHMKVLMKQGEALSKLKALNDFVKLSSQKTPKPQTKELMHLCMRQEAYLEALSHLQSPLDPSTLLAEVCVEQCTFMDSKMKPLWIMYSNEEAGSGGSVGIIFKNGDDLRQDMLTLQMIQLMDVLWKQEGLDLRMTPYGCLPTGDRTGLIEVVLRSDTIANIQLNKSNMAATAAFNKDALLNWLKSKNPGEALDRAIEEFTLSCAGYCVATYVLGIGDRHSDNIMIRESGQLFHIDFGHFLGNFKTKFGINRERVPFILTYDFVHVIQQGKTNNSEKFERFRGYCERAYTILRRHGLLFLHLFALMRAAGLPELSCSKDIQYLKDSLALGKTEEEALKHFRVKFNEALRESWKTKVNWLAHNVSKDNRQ
Sequence of PI3K-δ (PI3K(p1108/p857) (h)) (P27986 whole entry partner, the tested form may be a part): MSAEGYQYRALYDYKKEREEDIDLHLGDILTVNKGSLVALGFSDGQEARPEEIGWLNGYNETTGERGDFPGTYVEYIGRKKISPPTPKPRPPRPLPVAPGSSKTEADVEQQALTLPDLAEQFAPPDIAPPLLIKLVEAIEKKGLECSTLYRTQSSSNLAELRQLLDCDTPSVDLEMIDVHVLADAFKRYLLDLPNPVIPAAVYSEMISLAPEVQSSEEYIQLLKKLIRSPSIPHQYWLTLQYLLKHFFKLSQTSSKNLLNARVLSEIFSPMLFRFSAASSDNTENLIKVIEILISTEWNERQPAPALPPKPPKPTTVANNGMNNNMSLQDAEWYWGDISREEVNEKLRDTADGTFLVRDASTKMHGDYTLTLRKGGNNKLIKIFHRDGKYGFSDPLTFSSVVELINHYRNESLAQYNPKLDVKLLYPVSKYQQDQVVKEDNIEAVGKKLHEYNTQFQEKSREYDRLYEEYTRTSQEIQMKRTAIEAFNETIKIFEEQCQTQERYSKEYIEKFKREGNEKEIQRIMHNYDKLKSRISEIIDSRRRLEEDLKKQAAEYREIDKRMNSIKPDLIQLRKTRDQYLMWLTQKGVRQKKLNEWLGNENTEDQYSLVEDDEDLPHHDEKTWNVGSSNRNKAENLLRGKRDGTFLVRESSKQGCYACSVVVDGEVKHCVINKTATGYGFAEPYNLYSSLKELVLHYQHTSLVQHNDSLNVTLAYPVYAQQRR

| inhibition at 0.01 µM [1] | inhibition at 0.01 µM [2] | Structure (SMILES) |
| --- | --- | --- |
| 24% | 7% | C[C@H](Nc1ncnc2[nH]ccc(=O)c12)c1c(Cl)c2cccc(-c3ccc(-c4noc(C(C)(C)C)n4)cc3)c2c(=O)n1-c1ccccc1 [Example 161, (S)-4-((1-(8-(4-(5-(tert-butyl)-1,2,4-oxadiazol-3-yl)phenyl)-4-chloro-1-oxo-2-phenyl-1,2-dihydroisoquinolin-3-yl)ethyl)amino)pyrido[2,3-d]pyrimidin-5(8H)-one] |
| 81% | 63% | C[C@H](Nc1ncnc2[nH]ccc(=O)c12)c1c(Cl)c2cccc(-c3ccc(OC4CCOCC4)nc3)c2c(=O)n1-c1ccccc1 [Example 162, (S)-4-((1-(4-chloro-1-oxo-2-phenyl-8-(6-((tetrahydro-2H-pyran-4-yl)oxy)pyridin-3-yl)-1,2-dihydroisoquinolin-3-yl)ethyl)amino)pyrido[2,3-d]pyrimidin-5(8H)-one] |
| 70% | 45% | C[C@H](Nc1ncnc2[nH]ccc(=O)c12)c1c(Cl)c2cccc(-c3ccc(OCC4CC4)nc3)c2c(=O)n1-c1ccccc1 [Example 163, (S)-4-((1-(4-chloro-8-(6-(cyclopropylmethoxy)pyridin-3-yl)-1-oxo-2-phenyl-1,2-dihydroisoquinolin-3-yl)ethyl)amino)pyrido[2,3-d]pyrimidin-5(8H)-one] |
| 46% | 20% | C[C@H](Nc1ncnc2[nH]ccc(=O)c12)c1c(Cl)c2cccc(-c3ccc(OCc4ccccc4)nc3)c2c(=O)n1-c1ccccc1 [Example 164, (S)-4-((1-(8-(6-(benzyloxy)pyridin-3-yl)-4-chloro-1-oxo-2-phenyl-1,2-dihydroisoquinolin-3-yl)ethyl)amino)pyrido[2,3-d]pyrimidin-5(8H)-one] |
| 96% | 91% | C[C@H](Nc1ncnc2[nH]ccc(=O)c12)c1c(Cl)c2cccc(-c3ccc(S(C)(=O)=O)cc3)c2c(=O)n1-c1ccccc1 [Example 165, (S)-4-((1-(4-chloro-8-(4-(methylsulfonyl)phenyl)-1-oxo-2-phenyl-1,2-dihydroisoquinolin-3-yl)ethyl)amino)pyrido[2,3-d]pyrimidin-5(8H)-one] |
| 59% | 67% | C[C@H](Nc1ncnc2[nH]ccc(=O)c12)c1c(Cl)c2cccc(-c3ccc(C(=O)O)cc3)c2c(=O)n1-c1ccccc1 [Example 166, (S)-4-(4-chloro-1-oxo-3-(1-((5-oxo-5,8-dihydropyrido[2,3-d]pyrimidin-4-yl)amino)ethyl)-2-phenyl-1,2-dihydroisoquinolin-8-yl)benzoic acid] |
| 44% | 81% | CNC(=O)c1ccc(-c2cccc3c(Cl)c([C@H](C)Nc4ncnc5[nH]ccc(=O)c45)n(-c4ccccc4)c(=O)c23)cc1 [Example 167, (S)-4-(4-chloro-1-oxo-3-(1-((5-oxo-5,8-dihydropyrido[2,3-d]pyrimidin-4-yl)amino)ethyl)-2-phenyl-1,2-dihydroisoquinolin-8-yl)-N-methylbenzamide] |
| 58% | 67% | C[C@H](Nc1ncnc2[nH]ccc(=O)c12)c1c(Cl)c2cccc(-c3cnc(C4CC4)nc3)c2c(=O)n1-c1ccccc1 [Example 168, (S)-4-((1-(4-chloro-8-(2-cyclopropylpyrimidin-5-yl)-1-oxo-2-phenyl-1,2-dihydroisoquinolin-3-yl)ethyl)amino)pyrido[2,3-d]pyrimidin-5(8H)-one] |
| 40% | 67% | COc1cc(OC)cc(-c2cccc3c(Cl)c([C@H](C)Nc4ncnc5[nH]ccc(=O)c45)n(-c4ccccc4)c(=O)c23)c1 [Example 169, (S)-4-((1-(4-chloro-8-(3,5-dimethoxyphenyl)-1-oxo-2-phenyl-1,2-dihydroisoquinolin-3-yl)ethyl)amino)pyrido[2,3-d]pyrimidin-5(8H)-one] |
| 35% | 66% | COc1cc(-c2cccc3c(Cl)c([C@H](C)Nc4ncnc5[nH]ccc(=O)c45)n(-c4ccccc4)c(=O)c23)cnc1OC [Example 170, (S)-4-((1-(4-chloro-8-(5,6-dimethoxypyridin-3-yl)-1-oxo-2-phenyl-1,2-dihydroisoquinolin-3-yl)ethyl)amino)pyrido[2,3-d]pyrimidin-5(8H)-one] |
| 58% | 62% | COc1ncc(-c2cccc3c(Cl)c([C@H](C)Nc4ncnc5[nH]ccc(=O)c45)n(-c4ccccc4)c(=O)c23)cn1 [Example 171, (S)-4-((1-(4-chloro-8-(2-methoxypyrimidin-5-yl)-1-oxo-2-phenyl-1,2-dihydroisoquinolin-3-yl)ethyl)amino)pyrido[2,3-d]pyrimidin-5(8H)-one] |
| 53% | 82% | C[C@H](Nc1ncnc2[nH]ccc(=O)c12)c1c(Cl)c2cccc(-c3ccc(N)nc3)c2c(=O)n1-c1ccccc1 [Example 172, (S)-4-((1-(8-(6-aminopyridin-3-yl)-4-chloro-1-oxo-2-phenyl-1,2-dihydroisoquinolin-3-yl)ethyl)amino)pyrido[2,3-d]pyrimidin-5(8H)-one] |
| 40% | 86% | C[C@H](Nc1ncnc2[nH]ccc(=O)c12)c1c(Cl)c2cccc(-c3cccc(N4CCOCC4)c3)c2c(=O)n1-c1ccccc1 [Example 173, (S)-4-((1-(4-chloro-8-(3-morpholinophenyl)-1-oxo-2-phenyl-1,2-dihydroisoquinolin-3-yl)ethyl)amino)pyrido[2,3-d]pyrimidin-5(8H)-one] |
| 65% | 67% | C[C@H](Nc1ncnc2[nH]ccc(=O)c12)c1c(Cl)c2cccc(-c3cnc(N4CCOCC4)nc3)c2c(=O)n1-c1ccccc1 [Example 174, (S)-4-((1-(4-chloro-8-(2-morpholinopyrimidin-5-yl)-1-oxo-2-phenyl-1,2-dihydroisoquinolin-3-yl)ethyl)amino)pyrido[2,3-d]pyrimidin-5(8H)-one] |
| 70% | 80% | C[C@H](Nc1ncnc2[nH]ccc(=O)c12)c1c(Cl)c2cccc(-c3ccc(N4CCOCC4)nc3)c2c(=O)n1-c1ccccc1 [Example 175, (S)-4-((1-(4-chloro-8-(6-morpholinopyridin-3-yl)-1-oxo-2-phenyl-1,2-dihydroisoquinolin-3-yl)ethyl)amino)pyrido[2,3-d]pyrimidin-5(8H)-one] |
| 19% | 48% | C[C@H](Nc1ncnc2[nH]ccc(=O)c12)c1c(Cl)c2cccc(-c3ccc(C4CCOCC4)cc3)c2c(=O)n1-c1ccccc1 [Example 176, (S)-4-((1-(4-chloro-1-oxo-2-phenyl-8-(4-(tetrahydro-2H-pyran-4-yl)phenyl)-1,2-dihydroisoquinolin-3-yl)ethyl)amino)pyrido[2,3-d]pyrimidin-5(8H)-one] |
| 28% | 54% | COc1cc(-c2cccc3c(Cl)c([C@H](C)Nc4ncnc5[nH]ccc(=O)c45)n(-c4ccccc4)c(=O)c23)cc(OC)c1C [Example 177, (S)-4-((1-(4-chloro-8-(3,5-dimethoxy-4-methylphenyl)-1-oxo-2-phenyl-1,2-dihydroisoquinolin-3-yl)ethyl)amino)pyrido[2,3-d]pyrimidin-5(8H)-one] |
| 86% | 91% | C[C@H](Nc1ncnc2[nH]ccc(=O)c12)c1c(Cl)c2cccc(-c3ccc(N4CCN(C)CC4)cc3)c2c(=O)n1-c1ccccc1 [Example 179, (S)-4-((1-(4-chloro-8-(4-(4-methylpiperazin-1-yl)phenyl)-1-oxo-2-phenyl-1,2-dihydroisoquinolin-3-yl)ethyl)amino)pyrido[2,3-d]pyrimidin-5(8H)-one] |
| 83% | 59% | CC(C)Oc1cc(-c2cccc3c(Cl)c([C@H](C)Nc4ncnc5[nH]ccc(=O)c45)n(-c4ccccc4)c(=O)c23)ccn1 [Example 180, (S)-4-((1-(4-chloro-8-(2-isopropoxypyridin-4-yl)-1-oxo-2-phenyl-1,2-dihydroisoquinolin-3-yl)ethyl)amino)pyrido[2,3-d]pyrimidin-5(8H)-one] |
| 101% | 61% | C[C@H](Nc1ncnc2[nH]ccc(=O)c12)c1c(Cl)c2cccc(-c3ccc(C(F)(F)F)nc3)c2c(=O)n1-c1ccccc1 [Example 181, (S)-4-((1-(4-chloro-1-oxo-2-phenyl-8-(6-(trifluoromethyl)pyridin-3-yl)-1,2-dihydroisoquinolin-3-yl)ethyl)amino)pyrido[2,3-d]pyrimidin-5(8H)-one] |
| 85% | 64% | CC(C)Oc1ncc(-c2cccc3c(Cl)c([C@H](C)Nc4ncnc5[nH]ccc(=O)c45)n(-c4ccccc4)c(=O)c23)cn1 [Example 182, (S)-4-((1-(4-chloro-8-(2-isopropoxypyrimidin-5-yl)-1-oxo-2-phenyl-1,2-dihydroisoquinolin-3-yl)ethyl)amino)pyrido[2,3-d]pyrimidin-5(8H)-one] |
| 85% | 68% | CCOc1ccc(-c2cccc3c(Cl)c([C@H](C)Nc4ncnc5[nH]ccc(=O)c45)n(-c4ccccc4)c(=O)c23)cn1 [Example 183, (S)-4-((1-(4-chloro-8-(6-ethoxypyridin-3-yl)-1-oxo-2-phenyl-1,2-dihydroisoquinolin-3-yl)ethyl)amino)pyrido[2,3-d]pyrimidin-5(8H)-one] |

| Structure (SMILES) | inhibition at 0.01 µM [1] | inhibition at 0.01 µM [2] |
| --- | --- | --- |
| C[C@H](Nc1ncnc2[nH]ccc(=O)c12)c1c(Cl)c2cccc(-c3ccc([Si](C)(C)C)cc3)c2c(=O)n1-c1ccccc1 [Example 178, (S)-4-((1-(4-chloro-1-oxo-2-phenyl-8-(4-(trimethylsilyl)phenyl)-1,2-dihydroisoquinolin-3-yl)ethyl)amino)pyrido[2,3-d]pyrimidin-5(8H)-one] | 9% | -4% |
